assay: Inhibition of yeast alpha-glucosidase (unknown origin) using para-nitrophenyl glucopyranoside as substrate preincubated for 10 mins before substrate addition measured after 30 mins by spectrophotometry; design: species or system Saccharomyces cerevisiae

SMILES	IC50 [µM]
COc1ccc(/C=C2/C(=O)Nc3cc(Cl)ccc32)cc1OC	411
O=C1Nc2cc(Cl)ccc2/C1=C\c1ccc(O)c(O)c1	2.71
O=C1Nc2cc(Cl)ccc2/C1=C\c1ccccc1[N+](=O)[O-]	11.4
CCOc1cccc(/C=C2/C(=O)Nc3cc(Cl)ccc32)c1O	37.9
O=C1Nc2cc(Cl)ccc2/C1=C\c1ccc(Cl)cc1Cl	55.6
COc1cccc(/C=C2/C(=O)Nc3cc(Cl)ccc32)c1O	72.2
COc1ccc(/C=C2/C(=O)Nc3cc(Cl)ccc32)c(OC)c1OC	341
O=C1Nc2cc(Cl)ccc2/C1=C\c1cccc2ccccc12	102
O=C1Nc2cc(Cl)ccc2/C1=C\c1ccccc1Cl	73.1
COc1ccc(O)c(/C=C2/C(=O)Nc3cc(Cl)ccc32)c1	82.2
O=C1Nc2cc(Cl)ccc2/C1=C\c1ccco1	173
O=C1Nc2cc(Cl)ccc2/C1=C\c1c2ccccc2cc2ccccc12	17.3
O=C1Nc2cc(Cl)ccc2/C1=C\c1c(Cl)cccc1Cl	52.9
COc1cccc(/C=C2/C(=O)Nc3cc(Cl)ccc32)c1	139

Results, then the compound that gave them:

IC50 [µM]	SMILES
15.2	O=C1Nc2cc(Cl)ccc2/C1=C\c1cccc(O)c1
24.7	O=C1Nc2cc(Cl)ccc2/C1=C\c1ccc(O)cc1
84.4	O=C1Nc2cc(Cl)ccc2/C1=C\c1ccc([N+](=O)[O-])cc1
91.2	CN(C)c1ccc(/C=C2/C(=O)Nc3cc(Cl)ccc32)cc1
196	O=C1Nc2cc(Cl)ccc2/C1=C\c1ccccc1
110	O=Cc1ccc(/C=C2/C(=O)Nc3cc(Cl)ccc32)cc1
99.7	CCOc1ccc(/C=C2/C(=O)Nc3cc(Cl)ccc32)cc1
51.8	CSc1ccc(/C=C2/C(=O)Nc3cc(Cl)ccc32)cc1
108	COc1ccc(/C=C2/C(=O)Nc3cc(Cl)ccc32)cc1
115	Cc1ccc(/C=C2/C(=O)Nc3cc(Cl)ccc32)cc1
14.3	CC(C)c1ccc(/C=C2/C(=O)Nc3cc(Cl)ccc32)cc1

From ChEMBL document CHEMBL3297650, “Discovery of novel oxindole derivatives as potent α-glucosidase inhibitors” (Bioorg Med Chem, 2014)
